Results reported in publication PMC10780244, “Antileishmanial Effect of 1,5- and 1,8-Substituted Fused Naphthyridines” (Molecules, 2023).

Experiments:
[1] = Drug tolerance in murine intestinal organoids (alamarBlue); assay type: cell-based, mouse; details: Balb/c, mouse, murine intestinal organoids, 72 h exposure
Procedure: (§1) Amastigotes obtained from mouse bone marrow cells were used to perform a first screening with the complete series of fused 1,5- and 1,8-naphthyridines. […] The toxicity of these selected compounds was assessed in non-infected splenic cells and the cytotoxic concentration (CC50) value obtained was used to calculate the selective index (SI). The oral tolerability of these same compounds was tested by calculating the viability of murine intestinal organoids exposed to two concentrations (50 and 25 µM).
(§2) Preparation and maintenance of murine intestinal organoids cultures were performed following the protocols published by Stemcell Technologies™ (https://www.stemcell.com/intestinal-epithelial-organoid-culture-with-intesticult-organoid-growth-medium-mouse-lp.html#protocols, accessed on 14 December 2023) with some modifications. Briefly, a section of small intestine from a Balb/c mouse was extracted and washed with ice-cold PBS. This section was cut into pieces around 2 mm each, washed 15–20 times with ice-cold PBS and incubated with Gentle Cell Dissociation Reagent (Stemcell Technologies™, Vancouver, BC, Canada) for 20 min. Then, the pieces were resuspended in ice-cold PBS with 0.1% BSA and left to settle at the bottom of the tube. The supernatant was collected and filtered through a 70 µm strainer. This process was repeated a total of four times obtaining different fractions. Cells from these fractions were centrifugated at 300× g for 5 min at 4 °C, washed with ice-cold PBS + 0.1% BSA and resuspended on 10 mL of ice-cold DMEM/F12 supplemented with glutamine and HEPES 15 mM (Gibco, Thermo Fisher Scientific, Waltham, MA, USA). After the evaluation under a microscope, the fraction with the highest crypt number but the lowest detritus presence was chosen. This fraction was centrifugated at 200× g for 5 min at 4 °C and the pellet was resuspended in a 1:1 mix of Geltrex GFR LDEV-free (Gibco, Fisher Scientific, Waltham, MA, USA) and IntestiCult™ Organoid Grow Medium Mouse (Stemcell Technologies™, Vancouver, BC, Canada). Fifty microliters of the suspension were pipetted into the middle of each well of a pre-heated 24-well plate and incubated at 37 °C for 10 min to allow polymerization of the matrix. In the end, 500 µL of IntestiCult™ Organoid Grow Medium was added to each well. The plates were incubated at 37 °C and 5% CO2, changing the culture medium every 48 h. Organoids were split 1 into 4 plates after 7 days.
(§3) Drug tolerance assays using murine intestinal organoids were performed in 384-well plates, following a protocol based on previous works and introducing several modifications. Briefly, organoids were prepared discarding the culture medium and adding 800 µL of Gentle Cell Dissociation Reagent (Stemcell Technologies™, Vancouver, BC, Canada) directly on top of matrix domes. After 1 min incubation at room temperature, the matrix was broken by pipetting, and the content of the wells was retrieved. The suspension was incubated at room temperature for 10 min on a rocking platform at 20 rpm, and centrifugated at 300× g for 5 min at 4 °C. The pellet was resuspended in 10 mL of ice-cold DMEM/F12 (Gibco, Fisher Scientific, Waltham, MA, USA) supplemented with glutamine and HEPES 15 mM and centrifugated again at 200× g for 5 min at 4 °C. Cells were resuspended in a 1:1 mix of Geltrex GFR LDEV-free and IntestiCult™ Organoid Grow Medium Mouse (Stemcell Technologies™, Vancouver, Canada). The final volume of the mix was calculated to achieve a 4-fold dilution in the final plate compared to the original plate. The mix was distributed in a 384-well plate (8 µL/well) which was incubated at 37 °C for 10 min. After that, 32 µL of IntestiCult™ Organoid Grow Medium Mouse (Stemcell Technologies™, Vancouver, Canada) were added to each well. The plate was incubated at 37 °C and 5% CO2 and after 4 days, mature organoids were exposed to drugs, alone or combined. For positive control, hydrogen peroxide at the final concentration of 0.15 % v/v was used. […]

[2] = test system: murine intestinal organoids; test: as above; assay type: cell-based, mouse; details: 50 µM, 72 h exposure
Procedure: as §1, §2, §3

two cancer cell lines = test system: two cancer cell lines; parameters: method as in PMID 31229877, PMID 32279049, PMID 33962152; details: cited from earlier work
[3] = test system: leishmanial DNA topoisomerase IB (LdTopIB); test: Relaxation of supercoiled plasmid DNA assay; assay type: biochemical, Leishmania; details: 100 μM of compounds, 1 min at 37 °C, in words
Procedure: page 2: DNA DMSO 6b8a8b8c9b10b11a13a13b14a7c8d15b Relaxationof supercoiled plasmid DNA assay. Each reaction contains one unit of purified leishmanial DNA topisomeraseIB enzyme (LdTopIB), 100 μM ofcompounds, 0.5μg of supercoiled […], 10 mM Tris-HCl buffer pH 7.5, 5 mM MgCl 2, 0.1 mM EDTA, 15 μg/mL bovine serum albumin, 150 mM KCl. Reaction mixtures were incubated 1 min at 37 °C and stopped by the addition of 4 μL loading buffer (5% sarkosyl, 0.12% bromophenol blue, 25% glycerol). The topoisomerswere resolved in 1% agarose gels by electrophoresis in 0.1 M Tris borate EDTA buffer (pH 8.0) at 2 V/cm for 16 h and visualized with UV illumination after ethidium bromide (0.5μg/mL) staining. […]

[4] = test system: mouse splenic macrophages; test: Cytotoxicity in uninfected murine splenic cells (alamarBlue); assay type: cell-based; details: summary in discussion
Procedure: Amastigotes obtained from mouse bone marrow cells were used to perform a first screening with the complete series of fused 1,5- and 1,8-naphthyridines. […] The toxicity of these selected compounds was assessed in non-infected splenic cells and the cytotoxic concentration (CC50) value obtained was used to calculate the selective index (SI). The oral tolerability of these same compounds was tested by calculating the viability of murine intestinal organoids exposed to two concentrations (50 and 25 µM). In order to assess the in vitro safety of the naphthyridines, cytotoxicity assays were carried out in ex vivo splenic explants from uninfected mice, which were prepared as previously described to obtain intramacrophagic amastigotes. Cells were seeded at a density of 1 × 10^6 cells per well in 96-well plates containing the prediluted compounds and incubated at 37 °C and 5% CO2 during 72 h. AlamarBlue assay (Invitrogen, Fisher Scientific, Waltham, MA, USA) was used to estimate cell viability following manufacturer’s recommendations. The assays were performed by triplicate. Absorbance of viable cells vs. compound concentrations were fitted by nonlinear analysis using the Sigma Plot 10.1 statistical package to calculate the cytotoxic concentration 50 (CC50) values. Selectivity index (SI) was calculated as the ratio between CC50 and the EC50 values of intramacrophagic amastigotes.

[5] = test system: recombinant human DNA topoisomerase IB (hTopIB); parameters: method as in PMID 31229877, PMID 32279049, PMID 33962152; dose or concentration left out as unconfirmed; details: cited from earlier work

## O=C1Oc2ccccc2C2Nc3ccc(Br)nc3[C@@H](c3ccccc3)C12 (stereo partly drawn) [Compound 6b]
[1]
  viability at 72 h, 25 µM: 72 ± 5%
  viability at 72 h, 50 µM: 60 ± 7%

## COc1ccc2nc3c(c(-c4ccccc4)c2n1)c(=O)oc1ccccc13 [Compound 7c]
[1]
  viability at 72 h, 25 µM: 99 ± 4%
  viability at 72 h, 50 µM: 85 ± 13%

## Cc1ccc(S(=O)(=O)N2CC3C(Nc4cccnc4[C@H]3c3ccccc3)c3ccccc32)cc1 (stereo partly drawn) [Compound 8a]
[1]
  viability at 72 h, 25 µM: 93 ± 7%
  viability at 72 h, 50 µM: 89 ± 10%

## COc1ccc2c(n1)[C@@H](c1ccccc1)C1CN(S(=O)(=O)c3ccc(C)cc3)c3ccccc3C1N2 (stereo partly drawn) [Compound 8c]
[2]
  Intestinal Organoids 50 µM (%Viability): >100%
[1]
  viability at 72 h, 25 µM: > 100%
  viability at 72 h, 50 µM: 100%

## Cc1ccc(S(=O)(=O)N2CC3C(Nc4ccc(Br)nc4[C@H]3c3ccccc3)c3ccccc32)cc1 (stereo partly drawn) [Compound 8d]
[1]
  viability at 72 h, 25 µM: 4 ± 1%
  viability at 72 h, 50 µM: 3 ± 1%

## Fc1ccc2c(c1)C1Nc3ncccc3[C@@H](c3ccccc3)C1CO2 (stereo partly drawn) [Compound 10b]
[2]
  Intestinal Organoids 50 µM (%Viability): 90 ± 22%
[1]
  viability at 72 h, 25 µM: 99 ± 8%
  viability at 72 h, 50 µM: 90%

## c1ccc(-c2c3c(nc4ncccc24)-c2ccccc2OC3)cc1 [Compound 11a]
[1]
  viability at 72 h, 25 µM: 92 ± 1%
  viability at 72 h, 50 µM: 96 ± 1%

## O=c1oc2ccccc2c2nc3ncccc3c(-c3ccccc3)c12 [Compound 13a]
Two cancer cell lines
  cytotoxic effects on two cancer cell lines (concentration range): 1 to 15 µM
[3]
  LdTopIB inhibitory activity: did not show leishmanial DNA topoisomerase IB (LdTopIB) inhibitory activity
[4]
  toxicity (in words): significant toxicity
[5]
  inhibitory effect on DNA relaxation activity of hTopIB: had an inhibitory effect on DNA relaxation activity
[1]
  viability at 72 h, 25 µM: 87 ± 15%
  viability at 72 h, 50 µM: 53 ± 5%

## O=c1oc2ccccc2c2nc3ncc(Br)cc3c(-c3ccccc3)c12 [Compound 13b]
[1]
  viability at 72 h, 25 µM: 90 ± 5%
  viability at 72 h, 50 µM: 61 ± 19%

## Cc1ccc(S(=O)(=O)N2CC3C(Nc4ncccc4C3c3ccccc3)c3ccccc32)cc1 (stereo not drawn) [Compound 14a]
Two cancer cell lines
  cytotoxic effects on two cancer cell lines (concentration range): 1 to 15 µM
[3]
  LdTopIB inhibitory activity: did not show leishmanial DNA topoisomerase IB (LdTopIB) inhibitory activity
[4]
  toxicity (in words): significant toxicity
[5]
  inhibitory effect on DNA relaxation activity of hTopIB: had an inhibitory effect on DNA relaxation activity
[1]
  viability at 72 h, 25 µM: 90 ± 9%
  viability at 72 h, 50 µM: 56 ± 14%

## Cc1ccc(S(=O)(=O)N2Cc3c(nc4ncc(Br)cc4c3-c3ccccc3)-c3ccccc32)cc1 [Compound 15b]
Two cancer cell lines
  cytotoxic effects on two cancer cell lines (concentration range): 1 to 15 µM
[3]
  LdTopIB inhibitory activity: did not show leishmanial DNA topoisomerase IB (LdTopIB) inhibitory activity
[4]
  toxicity (in words): significant toxicity
[5]
  inhibitory effect on DNA relaxation activity of hTopIB: had an inhibitory effect on DNA relaxation activity
[1]
  viability at 72 h, 25 µM: 58 ± 16%
  viability at 72 h, 50 µM: 13 ± 3%
